In US9328112B2, “Tetracyclic CDK9 kinase inhibitors” (AbbVie Inc., priority 2014, dated 2016) one finds IC50 data, which are given here for 23 compounds.

Molecules are shown by their SMILES.

Assay [1] addresses CDK9/Cyclin T1 (Homo sapiens (Human), UniProt P50750). In words: CDK9 enzyme assay (LANCE ULight TR-FRET kinase assay). Format: biochemical. The settings on record: 1000 μM ATP, 100 nM ULight MBP, kinase reaction 1 hour. The gist of the method: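 Human CDK9/Cyclin T1 phosphorylating 100 nM ULight-MBP with 1000 μM ATP in HEPES/MgCl2 buffer, 1 h reaction. Stopped with 20 mM EDTA plus 0.5 nM Eu anti-phospho-MBP antibody, incubated 1 h, read by TR-FRET (ex 320 nm, em 615/665 nm).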
On the technique in general: Time-resolved FRET reads energy transfer from a long-lived donor to a nearby acceptor.

The subject of assay [2] is H929 cells. The experiment in a line: Cell viability assay (Cell TiterGlo). The class given is cell-based. The settings on record: Homo sapiens, NCI-H929, 24 hours at 37° C., Cell TiterGlo luminescence. Here is the method: The cell viability assay was performed using H929 cells. Cells were seeded in 96-well plates at 10,000 cells/well and, after overnight incubation, treated with compounds in a dose response of 3-fold dilutions from 10 μM to 0.005 μM ([…], 0.1% final DMSO concentration). After 24 hours at 37° C., cell viability was measured using Cell TiterGlo reagent (Promega) with a luminescence reader.

Sequence of CDK9/Cyclin T1 (P50750 whole entry): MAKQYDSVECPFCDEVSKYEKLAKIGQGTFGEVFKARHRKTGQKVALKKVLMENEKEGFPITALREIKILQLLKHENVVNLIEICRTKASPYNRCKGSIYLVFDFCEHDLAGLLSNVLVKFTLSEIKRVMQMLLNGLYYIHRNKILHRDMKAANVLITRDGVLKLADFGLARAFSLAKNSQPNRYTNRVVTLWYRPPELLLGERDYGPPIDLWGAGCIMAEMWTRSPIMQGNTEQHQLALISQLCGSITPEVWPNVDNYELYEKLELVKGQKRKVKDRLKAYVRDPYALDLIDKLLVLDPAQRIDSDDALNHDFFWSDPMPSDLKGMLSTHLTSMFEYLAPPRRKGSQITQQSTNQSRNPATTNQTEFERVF
Sequence of CDK9/Cyclin T1 (O60563 whole entry partner): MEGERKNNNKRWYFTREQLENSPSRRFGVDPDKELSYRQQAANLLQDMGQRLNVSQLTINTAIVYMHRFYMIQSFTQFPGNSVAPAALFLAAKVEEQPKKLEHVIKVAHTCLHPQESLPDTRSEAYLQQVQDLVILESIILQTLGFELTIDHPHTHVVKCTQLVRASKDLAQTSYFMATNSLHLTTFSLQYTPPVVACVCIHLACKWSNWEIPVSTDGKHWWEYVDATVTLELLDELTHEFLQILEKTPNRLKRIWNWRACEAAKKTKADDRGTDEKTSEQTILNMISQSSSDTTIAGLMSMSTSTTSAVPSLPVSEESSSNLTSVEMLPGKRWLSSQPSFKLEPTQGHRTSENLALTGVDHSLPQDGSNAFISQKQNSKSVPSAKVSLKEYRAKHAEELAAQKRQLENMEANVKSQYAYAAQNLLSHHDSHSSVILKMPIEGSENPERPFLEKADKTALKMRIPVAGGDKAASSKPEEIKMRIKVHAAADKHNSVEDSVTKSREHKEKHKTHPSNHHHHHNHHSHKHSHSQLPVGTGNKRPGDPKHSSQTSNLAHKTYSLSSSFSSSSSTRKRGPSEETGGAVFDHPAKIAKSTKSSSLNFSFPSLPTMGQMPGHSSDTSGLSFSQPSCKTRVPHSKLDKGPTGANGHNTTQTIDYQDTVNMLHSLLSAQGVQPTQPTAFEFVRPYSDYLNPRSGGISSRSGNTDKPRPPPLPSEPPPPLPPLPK

`CN1Cc2c(C3=C[C@H]4CC[C@@H](C3)N4)[nH]c3nccc(c23)-c2cc(F)ccc21` [Example 62, 5-[(1R,5S)-8-azabicyclo[3.2.1]oct-2-en-3-yl]-10-fluoro-7-methyl-6,7-dihydro-4H-3,4,7-triazadibenzo[cd,f]azulene]: the IC50 in assay [1] was 0.046 µM; in assay [2], 0.15 µM.
With `CN(CC(O)CO)C(=O)CN1CC=C(c2[nH]c3nccc4c3c2CN(C)c2ccc(F)cc2-4)CC1` (stereo not shown) [Example 63, N-(2,3-dihydroxypropyl)-2-[4-(10-fluoro-7-methyl-6,7-dihydro-4H-3,4,7-triazadibenzo[cd,f]azulen-5-yl)-3,6-dihydropyridin-1(2H)-yl]-N-methylacetamide], the IC50 in assay [1] stood at 0.038 µM; in assay [2], 0.09 µM.
The matching figures for `CN1Cc2c(C3=CCN(CC(=O)N4CCC[C@@H]4CO)CC3)[nH]c3nccc(c23)-c2cc(F)ccc21` [Example 64, 2-[4-(10-fluoro-7-methyl-6,7-dihydro-4H-3,4,7-triazadibenzo[cd,f]azulen-5-yl)-3,6-dihydropyridin-1(2H)-yl]-1-[(2R)-2-(hydroxymethyl)pyrrolidin-1-yl]ethanone]: 0.062 µM and 0.094 µM.
Turning to `CN1Cc2c(C3=CCN(CC(=O)OC(C)(C)C)CC3)[nH]c3ncc(F)c(c23)-c2cc(F)ccc21` [Example 65, tert-butyl[4-(1,10-difluoro-7-methyl-6,7-dihydro-4H-3,4,7-triazadibenzo[cd,f]azulen-5-yl)-3,6-dihydropyridin-1(2H)-yl]acetate], the IC50 in assay [1] amounted to 0.1 µM; in assay [2], 0.14 µM.
For `CN(C)C(=O)CN1CC=C(c2[nH]c3ncc(F)c4c3c2CN(C)c2ccc(F)cc2-4)CC1` [Example 66, 2-[4-(1,10-difluoro-7-methyl-6,7-dihydro-4H-3,4,7-triazadibenzo[cd,f]azulen-5-yl)-3,6-dihydropyridin-1(2H)-yl]-N,N-dimethylacetamide] the same measures were 0.044 µM and 0.01 µM.
Turning to `CN1Cc2c(C3=CCN(CC(=O)O)CC3)[nH]c3ncc(F)c(c23)-c2cc(F)ccc21` [Example 67, [4-(1,10-difluoro-7-methyl-6,7-dihydro-4H-3,4,7-triazadibenzo[cd,f]azulen-5-yl)-3,6-dihydropyridin-1(2H)-yl]acetic acid], the IC50 in assay [1] amounted to 0.048 µM; in assay [2], 0.13 µM.
For `COCCS(=O)(=O)N1CC2C=C(c3[nH]c4nccc5c4c3CN(C)c3ccc(F)cc3-5)CC2C1` (stereo not shown) [Example 69, 10-fluoro-5-{2-[(2-methoxyethyl)sulfonyl]-1,2,3,3a,4,6a-hexahydrocyclopenta[c]pyrrol-5-yl}-7-methyl-6,7-dihydro-4H-3,4,7-triazadibenzo[cd,f]azulene] the same measures were 0.08 µM and 0.095 µM.
On to `CN1Cc2c(C3=CCN(CC(=O)N4CCC[C@H]4CO)CC3)[nH]c3ncc(F)c(c23)-c2cc(F)ccc21` [Example 70, 2-[4-(1,10-difluoro-7-methyl-6,7-dihydro-4H-3,4,7-triazadibenzo[cd,f]azulen-5-yl)-3,6-dihydropyridin-1(2H)-yl]-1-[(2S)-2-(hydroxymethyl)pyrrolidin-1-yl]ethanone], for which the IC50 came to 0.086 µM in assay [1] and 0.005 µM in assay [2].
Consider `CN1Cc2c(C3=CCN(CC(=O)N4CC(O)C4)CC3)[nH]c3ncc(F)c(c23)-c2cc(F)ccc21` [Example 72, 2-[4-(1,10-difluoro-7-methyl-6,7-dihydro-4H-3,4,7-triazadibenzo[cd,f]azulen-5-yl)-3,6-dihydropyridin-1(2H)-yl]-1-(3-hydroxyazetidin-1-yl)ethanone], for which the IC50 stood at 0.079 µM in assay [1] and 0.021 µM in assay [2].
The matching figures for `CN1Cc2c(C3=CCN(CC(=O)N4CC[C@H](O)C4)CC3)[nH]c3ncc(F)c(c23)-c2cc(F)ccc21` [Example 73, 2-[4-(1,10-difluoro-7-methyl-6,7-dihydro-4H-3,4,7-triazadibenzo[cd,f]azulen-5-yl)-3,6-dihydropyridin-1(2H)-yl]-1-[(3S)-3-hydroxypyrrolidin-1-yl]ethanone]: 0.052 µM and 0.02 µM.
For `CN1Cc2c(C3=CCN(CC(=O)N4CC(CO)C4)CC3)[nH]c3ncc(F)c(c23)-c2cc(F)ccc21` [Example 74, 2-[4-(1,10-difluoro-7-methyl-6,7-dihydro-4H-3,4,7-triazadibenzo[cd,f]azulen-5-yl)-3,6-dihydropyridin-1(2H)-yl]-1-[3-(hydroxymethyl)azetidin-1-yl]ethanone], the IC50 in assay [1] came to 0.089 µM; in assay [2], 0.021 µM.
The matching figures for `CN1Cc2c(C3=CCN(CC(=O)N4CCC[C@@H]4CO)CC3)[nH]c3ncc(F)c(c23)-c2cc(F)ccc21` [Example 75, 2-[4-(1,10-difluoro-7-methyl-6,7-dihydro-4H-3,4,7-triazadibenzo[cd,f]azulen-5-yl)-3,6-dihydropyridin-1(2H)-yl]-1-[(2R)-2-(hydroxymethyl)pyrrolidin-1-yl]ethanone]: 0.051 µM and 0.008 µM.
The matching figures for `CNC(=O)N1CC2C=C(c3[nH]c4nccc5c4c3CN(C)c3ccc(F)cc3-5)CC2C1` (stereo not shown) [Example 76, 5-(10-fluoro-7-methyl-6,7-dihydro-4H-3,4,7-triazadibenzo[cd,f]azulen-5-yl)-N-methyl-3,3a,4,6a-tetrahydrocyclopenta[c]pyrrole-2(1H)-carboxamide]: 0.041 µM and 0.022 µM.
`CN(C)C(=O)CN1CC2C=C(c3[nH]c4nccc5c4c3CN(C)c3ccc(F)cc3-5)CC2C1` (stereo not shown) [Example 77, 2-[5-(10-fluoro-7-methyl-6,7-dihydro-4H-3,4,7-triazadibenzo[cd,f]azulen-5-yl)-3,3a,4,6a-tetrahydrocyclopenta[c]pyrrol-2(1H)-yl]-N,N-dimethylacetamide]: the IC50 is 0.046 µM in assay [1] and 0.078 µM in assay [2].
In the case of `CN1Cc2c(C3=CC4CN(S(C)(=O)=O)CC4C3)[nH]c3nccc(c23)-c2cc(F)ccc21` (stereo not shown) [Example 78, 10-fluoro-7-methyl-5-[2-(methylsulfonyl)-1,2,3,3a,4,6a-hexahydrocyclopenta[c]pyrrol-5-yl]-6,7-dihydro-4H-3,4,7-triazadibenzo[cd,f]azulene], the figures for the IC50 in assay [1] and in assay [2] were 0.062 µM and 0.03 µM, respectively.
The matching figures for `CN1Cc2c(C3=C[C@H]4CC[C@@H](C3)N4CC(=O)N3CCC[C@H]3CO)[nH]c3nccc(c23)-c2cc(F)ccc21` [Example 79, 2-[(1R,5S)-3-(10-fluoro-7-methyl-6,7-dihydro-4H-3,4,7-triazadibenzo[cd,f]azulen-5-yl)-8-azabicyclo[3.2.1]oct-2-en-8-yl]-1-[(2S)-2-(hydroxymethyl)pyrrolidin-1-yl]ethanone]: 0.072 µM and 0.049 µM.
For `CN1Cc2c(C3=C[C@H]4CC[C@@H](C3)N4CC(=O)N3CC(O)C3)[nH]c3nccc(c23)-c2cc(F)ccc21` [Example 80, 2-[(1R,5S)-3-(10-fluoro-7-methyl-6,7-dihydro-4H-3,4,7-triazadibenzo[cd,f]azulen-5-yl)-8-azabicyclo[3.2.1]oct-2-en-8-yl]-1-(3-hydroxyazetidin-1-yl)ethanone] the same measures were 0.097 µM and 0.19 µM.
`CN1Cc2c(-c3ccc(CC(=O)O)cc3)[nH]c3nccc(c23)-c2cc(F)ccc21` [Example 81, [4-(10-fluoro-7-methyl-6,7-dihydro-4H-3,4,7-triazadibenzo[cd,f]azulen-5-yl)phenyl]acetic acid]: the figures for the IC50 in assay [1] and in assay [2] were 0.068 µM and 0.79 µM, respectively.
The matching figures for `CN1Cc2c(-c3cccc(CC(=O)O)c3)[nH]c3nccc(c23)-c2cc(F)ccc21` [Example 82, [3-(10-fluoro-7-methyl-6,7-dihydro-4H-3,4,7-triazadibenzo[cd,f]azulen-5-yl)phenyl]acetic acid]: 0.1 µM and 4.7 µM.
For `CN(CC(O)CO)C(=O)CN1[C@H]2CC[C@@H]1C=C(c1[nH]c3nccc4c3c1CN(C)c1ccc(F)cc1-4)C2` (stereo partly drawn) [Example 83, N-(2,3-dihydroxypropyl)-2-[(1R,5S)-3-(10-fluoro-7-methyl-6,7-dihydro-4H-3,4,7-triazadibenzo[cd,f]azulen-5-yl)-8-azabicyclo[3.2.1]oct-2-en-8-yl]-N-methylacetamide] the same measures were 0.14 µM and 0.14 µM.
Take `CN1Cc2c(C3=CC4CN(CC(=O)N5CC(O)C5)CC4C3)[nH]c3nccc(c23)-c2cc(F)ccc21` (stereo not shown) [Example 84, 2-[5-(10-fluoro-7-methyl-6,7-dihydro-4H-3,4,7-triazadibenzo[cd,f]azulen-5-yl)-3,3a,4,6a-tetrahydrocyclopenta[c]pyrrol-2(1H)-yl]-1-(3-hydroxyazetidin-1-yl)ethanone]: the IC50 in assay [1] was found to be 0.094 µM; in assay [2], 0.18 µM.
For `CN(CC(O)CO)C(=O)CN1CC2C=C(c3[nH]c4nccc5c4c3CN(C)c3ccc(F)cc3-5)CC2C1` (stereo not shown) [Example 85, N-(2,3-dihydroxypropyl)-2-[5-(10-fluoro-7-methyl-6,7-dihydro-4H-3,4,7-triazadibenzo[cd,f]azulen-5-yl)-3,3a,4,6a-tetrahydrocyclopenta[c]pyrrol-2(1H)-yl]-N-methylacetamide], the IC50 in assay [1] was found to be 0.099 µM; in assay [2] it was 0.25 µM.
For `CN(CCO)C(=O)CN1CC2C=C(c3[nH]c4nccc5c4c3CN(C)c3ccc(F)cc3-5)CC2C1` (stereo not shown) [Example 86, 2-[5-(10-fluoro-7-methyl-6,7-dihydro-4H-3,4,7-triazadibenzo[cd,f]azulen-5-yl)-3,3a,4,6a-tetrahydrocyclopenta[c]pyrrol-2(1H)-yl]-N-(2-hydroxyethyl)-N-methylacetamide] the same measures were 0.043 µM and 0.094 µM.

As usually defined, the IC50 is the concentration that gives 50% inhibition. A low value points to greater potency in that assay.
